Experimental data: article PMC3269340, “Pharmacokinetics of memantine in rats and mice” (PLoS Currents, 2012)

Columns and labels:
Assay type in all cases: in vitro ADME
OATP2B1 [1] = target: T1, OATP2B1 (Homo sapiens, UniProt O94956); experiment: Indirect uptake transporter assay, OATP2B1
T1 construct: expressed in transfected cells; host or cells: MDCKII cells
T1 sequence (O94956 1-709): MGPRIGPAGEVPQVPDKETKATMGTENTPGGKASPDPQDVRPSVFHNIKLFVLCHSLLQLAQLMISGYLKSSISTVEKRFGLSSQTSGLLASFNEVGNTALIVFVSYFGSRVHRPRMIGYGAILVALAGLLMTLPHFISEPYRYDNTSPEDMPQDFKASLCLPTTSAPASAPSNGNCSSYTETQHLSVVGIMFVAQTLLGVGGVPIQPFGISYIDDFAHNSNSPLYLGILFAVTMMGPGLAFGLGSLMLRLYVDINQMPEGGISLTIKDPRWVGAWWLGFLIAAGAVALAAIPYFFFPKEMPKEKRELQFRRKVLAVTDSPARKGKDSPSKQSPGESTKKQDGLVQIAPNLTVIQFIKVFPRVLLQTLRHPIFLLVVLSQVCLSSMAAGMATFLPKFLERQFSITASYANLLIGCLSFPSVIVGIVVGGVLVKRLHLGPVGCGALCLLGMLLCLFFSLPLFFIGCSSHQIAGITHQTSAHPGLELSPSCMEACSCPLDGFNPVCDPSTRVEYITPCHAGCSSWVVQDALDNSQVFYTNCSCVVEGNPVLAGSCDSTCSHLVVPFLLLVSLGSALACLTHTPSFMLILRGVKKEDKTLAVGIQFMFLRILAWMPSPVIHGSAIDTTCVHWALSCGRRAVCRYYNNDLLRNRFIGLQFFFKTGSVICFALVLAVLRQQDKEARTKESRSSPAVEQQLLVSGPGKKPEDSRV
Excerpt: To determine whether memantine is an inhibitor of the human OATP2B1 (OATP-B), OCT1, OCT2, OAT3, PEPT1, PEPT2 uptake transporters. The standard uptake transporter assay is an indirect, inhibitory-type screening assay, performed with cold test article, which in this case was memantine. It provides information on any interaction (substrate or inhibitor) between selected uptake transporters and memantine that would affect the transport of the reporter compound. […] A radiolabeled reporter substrate is transported into the cells transfected with the selected human uptake transporter, and the inhibitory effect of memantine on the transport of this reporter substrate is measured. Values are presented on a relative scale; 100% defined as transport in the presence of the solvent and without memantine (no inhibition), and 0% defined as transport detected without transporter activity. IC50 is defined as the concentration required to inhibit the transport of the reporter substrate by 50%. […]
After the experiment cells were rinsed with 2 x 100µl of Krebs-Henseleit buffer and lysed with 50 µl of 0.1M NaOH. ^3H-estrone-3-sulfate, ^14C-TEA, ^14C-metformin and ^3H-Gly-Sar transport was determined by total radioactivity by transferring an aliquot (35µl) from each well to a vial containing liquid scintillant for analysis.

[2] = Metabolite identification in rat liver microsomes; conditions: 10 µM, 1 mg/mL rat liver microsomal protein, 60 min
Description: Metabolites of memantine were characterized following incubation in pooled rat liver microsomes. Incubation conditions were as described above (Section 4.1), except that for metabolite identification the memantine concentration was 10 µM, 1 mg/mL of liver microsomal protein was used, and the metabolites were identified following a 60 min incubation period. Control incubations (T=0 min) were used as reference, and testosterone incubations were used as a positive control.
Full scan mass spectra were acquired by TOF-MS as accurate mass. The instruments were controlled and data acquired by Waters MassLynx™ version 4.1 (SCN 714) software. The TOF-MS spectra were interrogated and metabolite reports generated by Waters MetaboLynx™ XS software.

OATP2B1 [3] = target: T1, OATP2B1; experiment: Direct uptake transporter assay, OATP2B1; conditions: for Accumulation in transporter transfected cells: OATP2B1-transfected cells; for Accumulation in parental cells: parental MDCKII cells (OATP2B1 line)
Description: To determine whether memantine is a substrate of the human OATP2B1 (OATP-B), OCT1, OCT2, OAT3, PEPT1, PEPT2 uptake transporters.
The potential for memantine to be a substrate of an uptake transporter was determined directly by comparing the uptake of memantine into cells expressing the selected uptake transporter with its uptake into control cells. Memantine was added to transporter-expressing and control cells at two concentrations (PEPT1 and PEPT2 100 and 300 µM, OCT1 and OCT2 50 and 100 µM, OATP2B1 100 and 300 µM), and incubated with cells for 2 and 20 min at 37±1°C (75 µL final incubation volume). […] Incubations were carried out as described in the indirect uptake transporter assays. The concentration of memantine was determined by LC-MS/MS.

CC12CC3CC(C)(C1)CC(N)(C3)C2 [memantine]
IC50 (OATP2B1 [1]; OATP2B1, probe printed in Table 5: TEA (3.6 μM), methods and text: E3S): > 300 µM
inhibition at 300 µM (OATP2B1 [1]; human, probe 3H-estrone-3-sulfate, at 300 µM, read-out: inhibition of OATP2B1-mediated estrone-3-sulfate transport): 67%
most abundant metabolite (based on uv signal response) [2]: product of a single aliphatic hydroxylation
substrate of OATP2B1 uptake transporter (OATP2B1 [3]): appeared to be a substrate
accumulation in transporter-transfected cells higher than in parental cells (OATP2B1 [3]; OATP2B1): > 1.5 fold
Highest Fold Activation (OATP2B1 [3]; OATP2B1, 300 µM, 20 min): 2.1 (300 µM, 20 min)
Accumulation in transporter transfected cells (OATP2B1 [3]; 2 min, 100 µM): 11317 pmol/mg
Accumulation in transporter transfected cells (OATP2B1 [3]; 2 min, 300 µM): 18296 pmol/mg
Accumulation in transporter transfected cells (OATP2B1 [3]; 20 min, 100 µM): 20820 pmol/mg
Accumulation in transporter transfected cells (OATP2B1 [3]; 20 min, 300 µM): 45866 pmol/mg
Accumulation in parental cells (OATP2B1 [3]; 2 min, 100 µM): 6409 pmol/mg
Accumulation in parental cells (OATP2B1 [3]; 2 min, 300 µM): 10891 pmol/mg
Accumulation in parental cells (OATP2B1 [3]; 20 min, 100 µM): 10889 pmol/mg
Accumulation in parental cells (OATP2B1 [3]; 20 min, 300 µM): 21496 pmol/mg
